This note sets out measurements from patent US20250090820A1, “LOCALIZED DRUG DELIVERY TO PREVENT VASCULAR RESTENOSIS” (Ohio State Innovation Foundation, priority 2022, published 2025).

The series can be described thus: Release of model compounds from sintered electrospun PCL fiber capsules. Format: physicochemical. The settings on record: for ranking of release of model compounds: controlled by molecular weight and available porosity. An excerpt:
Electrospinning has been used widely for drug delivery due to its versatility and ease of modification of fiber properties. However, total drug loading and release is typically limited by the inherent surface area. Instead a sintering of electrospun fiber to create injectable capsules favoring controlled delivery of low molecular weight compounds was used. As electrospun, the fully resorbable, biocompatible polymer polycaprolactone (PCL) retains its morphology out to 1,042 days of in vitro exposure, illustrating its potential for extended performance. Sintering decreases the pore size by 10- and 28-fold following 56 and 57° C. exposures, respectively. After the 58 and 59° C. exposures, these PCL capsules lose all apparent surface porosity but entrapped pores are observed in the 58° C. cross-section. […] The model drug adsorption on the available surface area (57 versus 56° C.) and entrapped porosity (59 versus 58° C.) could have also attributed to the observed ranking of release rates.
FIGS. 5A-5H show images of microstructural transformations at different temperatures (56° C. to 59° C.). […] Little difference between 56° C. and 57° C. sintering and unsintered fiber˜100% release. […] At 58° C. and 59° C. release is flipped: faster release at lower porosity. RhB is a relatively small molecule. Intermittent adsorption to surface of remaining porosity greatly slows release. […] No condition achieves˜100% release out to 12 days. […] At 58° C. and 59° C. release are still flipped but not as dramatic: faster release at lower porosity. Intermittent adsorption to surface of remaining porosity continues to slow release but increased molecular weight decreases net differences in diffusion. […] Much larger molecule needs fully open porosity for any release to occur. […] Diffusion through dense PCL is zero. […] FIGS. 11A-11B show relatively little porosity remains. This makes a substantial difference in diffusion and surface controlled release. Sequestration within the wall. FIGS. 12A-12D and 13A-13F show controlled salt confinement for controlled porosity using HEPES salt. […] Extraction was performed using deionized water at 37° C. for 24 hours plus gentle shaking. In most cases extraction was nearly complete. It is likely that Na^+ was retained and has measurable effects on mechanical properties.

Where only a bound is given, the exact number is not on record here.

Turning to `CCN(CC)c1ccc2c(-c3ccccc3C(=O)O)c3ccc(=[N+](CC)CC)cc-3oc2c1.[Cl-]` [RhB, Rhodamine B], the “ranking of release of model compounds” value is reported as “RhB>RB>>BSA-FITC”. The “percent RhB release of 200 μg” value (56° C. and 57° C. sintering and unsintered fiber) is ~100%. The RhB release profile result (capsules sintered at 58° C.) was “linear release out to 12 days”.
Consider `O=C1OC2(c3cc(I)c(O)c(I)c3Oc3c2cc(I)c(O)c3I)c2c(Cl)c(Cl)c(Cl)c(Cl)c21` [RB, Rose Bengal], for which the “ranking of release of model compounds” value is reported as “RhB>RB>>BSA-FITC”. Further, the “percent RB release of 200 μg” value (any sintering condition, out to 12 days) is given as < 100%. Further, the RB release profile entry (capsules sintered at 58° C. and 59° C.) was “linear release out to 12 days”.
With “albumin-fluorescein isothiocyanate conjugate from bovine serum [BSA-FITC]”, the “ranking of release of model compounds” value is listed as “RhB>RB>>BSA-FITC”. The “Diffusion through dense PCL” value (dense PCL wall) was “zero”. Moreover, the BSA-FITC release profile result (release of 200 μg versus time, needs fully open porosity) was “Release plateaus quickly”.
